# Data as given in patent US6084130A, “Aryl substituted bicyclic amines as selective dopamine D3 ligands” (Pharmacia & Upjohn Company, priority 1997, dated 2000).
# Assays:
# [1] = biological target: T1, D3-DOP-CLONE (Rattus norvegicus, UniProt P19020); experiment: Competition binding against [3H]-7-OH-DPAT, cloned rat D3 receptors expressed in CHO-K1 cells (Table II); conditions: ligand 7-OH-DPAT (0.5 nM)
# T1 construct: expressed in transfected cells; host or cells: CHO-K1
# Method: (§1) As was done for Table I, competition binding experiments employed eleven dilutions of test compounds of Formula II competing with [^3 H]-5-(dipropylamino)-5,6-dihydro-4H-imidazo(4,5,1-ij)quinolin-2(1H)-one (R-enantiomer) ("86170") (62 Ci/mmol, 2 nM) and [^3 H]-7-OH-DPAT ("7-OH-DPAT") (107 Ci/mmol, 0.5 nM) for D2 and D3 binding sites, respectively. (Lahti, R. A., Eur. J. Pharmacol., 202, 289 (1991)) In each experiment, cloned rat receptors expressed in CHO-K1 cells were used. (Chio, C. L., Nature, 343, 266 (1990); and Huff, R. M., Mol. Pharmacol., 45, 51-60 (1993). Ki values were calculated with the Chen-Prushoff equation. The results are shown in Table II for compounds prepared under Scheme 5.
# [2] = biological target: T2, D2-DOP-CLONE (Rattus norvegicus, UniProt P61169); experiment: Competition binding against [3H]-86170, cloned rat D2 receptors expressed in CHO-K1 cells (Table II); conditions: ligand 86170 (2 nM)
# T2 construct: expressed in transfected cells; host or cells: CHO-K1
# T2 sequence (P61169 whole entry): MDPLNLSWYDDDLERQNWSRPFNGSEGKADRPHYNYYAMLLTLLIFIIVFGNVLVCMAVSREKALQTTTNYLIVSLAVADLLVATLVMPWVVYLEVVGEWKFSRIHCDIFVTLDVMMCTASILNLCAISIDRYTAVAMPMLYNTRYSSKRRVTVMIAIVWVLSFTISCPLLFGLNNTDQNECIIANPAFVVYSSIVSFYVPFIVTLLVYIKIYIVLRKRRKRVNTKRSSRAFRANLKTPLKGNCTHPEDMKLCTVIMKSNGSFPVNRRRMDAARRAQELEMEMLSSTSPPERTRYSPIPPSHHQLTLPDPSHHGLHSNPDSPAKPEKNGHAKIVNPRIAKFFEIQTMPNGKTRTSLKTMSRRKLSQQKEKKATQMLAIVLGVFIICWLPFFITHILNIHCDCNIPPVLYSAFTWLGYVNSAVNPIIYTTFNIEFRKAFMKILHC
# Method: as §1
# [3] = biological target: T1, D3-DOP-CLONE; experiment: Competition binding against [3H]-spiperone, cloned rat D3 receptors expressed in CHO-K1 cells (Table I); parameters: key to Ki (nM): *: indicates compound was inactive; conditions: ligand SPI (0.5 nM)
# Method: (§2) Competition binding experiments employed eleven dilutions of test compounds of Formula I competing with [^3 H]-5-(dipropylamino)-5,6-dihydro-4H-imidazo(4,5,1-ij)quinolin-2(1H)-one (R-enantiomer) ("86170") (62 Ci/mmol, 2 nM) and [^3 H]-spiperone ("SPI") (107 Ci/mmol, 0.5 nM) for D2 and D3 binding sites, respectively. (Lahti, R. A., Eur. J. Pharmacol., 202, 289 (1991)) In each experiment, cloned rat receptors expressed in CHO-K1 cells were used. (Chio, C. L., Nature, 343, 266 (1990); and Huff, R. M., Mol. Pharmacol. 45, 51-60 (1993)).
# [4] = biological target: T2, D2-DOP-CLONE; experiment: Competition binding against [3H]-86170, cloned rat D2 receptors expressed in CHO-K1 cells (Table I); parameters: key to Ki (nM): *: indicates compound was inactive; conditions: ligand 86170 (2 nM)
# Method: as §2
# [5] = system: Dopamine; experiment: Dopamine screen; assay type: binding
# T1 sequence (P19020 whole entry): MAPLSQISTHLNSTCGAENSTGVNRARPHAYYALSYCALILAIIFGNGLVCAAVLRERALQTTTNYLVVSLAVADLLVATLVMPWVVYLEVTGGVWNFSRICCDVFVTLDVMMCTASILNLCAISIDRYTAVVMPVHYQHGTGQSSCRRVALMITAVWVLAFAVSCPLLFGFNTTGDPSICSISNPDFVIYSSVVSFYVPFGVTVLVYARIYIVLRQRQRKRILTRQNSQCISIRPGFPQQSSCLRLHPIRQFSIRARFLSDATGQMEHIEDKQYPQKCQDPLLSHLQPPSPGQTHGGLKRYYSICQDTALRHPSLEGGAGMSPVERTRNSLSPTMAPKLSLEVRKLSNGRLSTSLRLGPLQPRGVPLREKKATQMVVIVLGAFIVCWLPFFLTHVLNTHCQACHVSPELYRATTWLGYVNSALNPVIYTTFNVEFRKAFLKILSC
SMILES,Ki [3] [nM],Ki [4] [nM],further results
CCCNC1CCc2nc(OS(=O)(=O)c3ccc(Cl)cc3)ccc2C1 (centres unmarked) [Compound 52],,,Ki [1]: 6 nM; Ki [2]: 357 nM
CCCN(CCC)C1CCc2nc(OS(=O)(=O)c3ccc(Cl)cc3)ccc2C1 (centres unmarked) [Compound 53],,,Ki [1]: 3 nM; Ki [2]: 184 nM
"CCCN(CCC)[C@@H]1CCc2ccc(CNS(=O)(=O)c3ccc(C#N)cc3)cc2C1 [Example 2, (R)-4-Cyano-N-[[7-(dipropylamino)-5,6,7,8-tetrahydro-2-naphthalenyl]methyl]benzenesulfonamide]",32,1440,
"CCCN(CCC)[C@@H]1CCc2ccc(CNS(=O)(=O)c3cccc(C#N)c3)cc2C1 [Example 5, (R)-3-Cyano-N-[[7-(dipropylamino)-5,6,7,8-tetrahydro-2-naphthalenyl]methyl]benzenesulfonamide]",,786,activity in dopamine screen [5]: Inactive; Ki (nM) [3]: *
"CCCN(CCC)[C@@H]1CCc2ccc(CNS(=O)(=O)c3cn(C)cn3)cc2C1 [Example 6, (R)-N-[[7-(Dipropylamino)-5,6,7,8-tetrahydro-2-naphthalenyl]methyl]1-methyl-1H-imidazole-4-sulfonamide]",1450,1680,
"CCCN(CCC)[C@@H]1CCc2ccc(CNC(=O)c3ccc(C#N)cc3)cc2C1 [Example 9, (R)-4-Cyano-N-[[7-(dipropylamino)-5,6,7,8-tetrahydro-2-naphthalenyl]methyl]benzamide]",,,Ki (nM) [3]: *; Ki (nM) [4]: *
"CCCN(CCC)[C@@H]1CCc2ccc(NS(=O)(=O)c3ccc(C#N)cc3)cc2C1 [Example 11, (R)-4-Cyano-N-[7-(dipropylamino)-5,6,7,8-tetrahydro-2-naphthalenyl]benzenesulfonamide]",195,> 2240,

# Second part, led by results:
Ki [3] [nM],Ki [4] [nM],SMILES,further results
12,206,"CCCN(CCC)[C@@H]1CCc2ccc(CNS(=O)(=O)c3ccc(Cl)cc3)cc2C1 [Example 3, (R)-4-Chloro-N-[[7-(dipropylamino)-5,6,7,8-tetrahydro-2-naphthalenyl]methyl]benzenesulfonamide]",
109,772,"CCCN(CCC)[C@@H]1CCc2ccc(CNS(=O)(=O)c3ccc([N+](=O)[O-])cc3)cc2C1 [Example 4, (R)-4-Nitro-N-[[7-(dipropylamino)-5,6,7,8-tetrahydro-2-naphthalenyl]methyl]benzenesulfonamide]",
87,177,"CCCN(CCC)[C@@H]1CCc2ccc(CNC(=O)c3ccc(Cl)cc3)cc2C1 [Example 8, (R)-4Chloro-N-[[7-(dipropylamino)-5,6,7,8-tetrahydro-2-naphthalenyl]methyl]benzamide]",
18,324,"CCCN(CCC)[C@@H]1CCc2ccc(NS(=O)(=O)c3ccc(Cl)cc3)cc2C1 [Example 10, (R)-4-Chloro-N-[7-(dipropylamino)-5,6,7,8-tetrahydro-2-naphthalenyl]benzenesulfonamide]",
